Results as given in ChEMBL document CHEMBL4130595, “Antitubercular Nitroimidazoles Revisited: Synthesis and Activity of the Authentic 3-Nitro Isomer of Pretomanid” (ACS Med Chem Lett, 2017).
≈ marks a conversion by molar mass, not a printed value.

What was measured:
[1] = tested on: Mycobacterium tuberculosis; assay: Antitubercular activity against Mycobacterium tuberculosis H37Rv ATCC 27294 incubated for 10 days under low oxygen condition followed by second incubation under aerobic condition for 28 hrs by LORA; format: functional
[2] = tested on: Mycobacterium tuberculosis; assay: Antitubercular activity against Mycobacterium tuberculosis H37Rv measured after 7 days under aerobic condition by alamar blue assay; format: functional; details: 168 h
Vero = assay: Cytotoxicity against African green monkey Vero cells after 72 hrs by MTS/PMS assay; format: cell-based; details: Chlorocebus sabaeus

## CC(=O)NC[C@H]1CN(c2ccc(N3CCOCC3)c(F)c2)C(=O)O1 [LINEZOLID]
[1]
  MIC: 2.8 µM (≈ 0.945 µg/mL)
[2]
  MIC: 2.9 µM (≈ 0.978 µg/mL)

## NNC(=O)c1ccncc1 [ISONIAZID]
[1]
  MIC: > 128 µM
[2]
  MIC: 0.34 µM (≈ 0.0466 µg/mL)

## CO[C@H]1/C=C/O[C@@]2(C)Oc3c(C)c(O)c4c(O)c(c(/C=N/N5CCN(C)CC5)c(O)c4c3C2=O)NC(=O)/C(C)=C\C=C\[C@H](C)[C@H](O)[C@@H](C)[C@@H](O)[C@@H](C)[C@H](OC(C)=O)[C@@H]1C [RIFAMPIN]
[1]
  MIC: 0.64 µM (≈ 0.527 µg/mL)
Vero
  IC50: > 100 µM
[2]
  MIC: 0.049 µM (≈ 0.0403 µg/mL)

## O=[N+]([O-])c1cnc2n1C[C@H](O)CO2
[1]
  MIC: > 128 µM
Vero
  IC50: > 128 µM
[2]
  MIC: > 128 µM

## Cc1cc(CO[C@@H]2COc3nc([N+](=O)[O-])cn3C2)ccc1OC(F)(F)F
[1]
  MIC: 1 µM (≈ 0.373 µg/mL)
Vero
  IC50: > 128 µM
[2]
  MIC: 0.063 µM (≈ 0.0235 µg/mL)

## COc1c(N2C[C@@H]3CCCN[C@@H]3C2)c(F)cc2c(=O)c(C(=O)O)cn(C3CC3)c12 [MOXIFLOXACIN]
[1]
  MIC: > 128 µM
[2]
  MIC: 0.42 µM (≈ 0.169 µg/mL)

## O=[N+]([O-])c1cnc2n1C[C@H](OCc1ccc(OC(F)(F)F)cc1)CO2
[1]
  MIC: > 128 µM
Vero
  IC50: > 128 µM
[2]
  MIC: > 128 µM

## COc1nc2ccc(Br)cc2cc1[C@@H](c1ccccc1)[C@@](O)(CCN(C)C)c1cccc2ccccc12 [BEDAQUILINE]
[1]
  MIC: 0.11 µM (≈ 0.0611 µg/mL)
Vero
  IC50: > 10 µM
[2]
  MIC: 0.07 µM (≈ 0.0389 µg/mL)

## Cc1ncc([N+](=O)[O-])n1CCO [METRONIDAZOLE]
[1]
  MIC: 79 µM (≈ 13.5 µg/mL)
[2]
  MIC: > 512 µM
